# Experimental data as given in patent US20260018245A1, “SYSTEMS AND METHODS FOR IDENTIFYING AND TARGETING COLLATERAL LETHAL GENES” (The Regents of the University of Michigan, priority 2022, published 2026).
# What was measured:
# SKOV3 cells = experiment: Two-drug synergy of rotenone and MTHFD2 inhibitor on viability (SynergyFinder); type: cell-based; details: MTHFD2 inhibitor combined with complex I inhibitor rotenone
# Text: FIG. 11 Investigating alternative metabolic pathways to rescue UQCR11-null cells from collateral lethal targeting of MTHFD2. (a) Correlation between NDUFS7 mRNA expression and copy-number alterations of the 19p13.3 locus, represented by UQCR11 copy-number in TCGA OVCA dataset (n=303). Correlations estimated using Spearman's rank correlation test. (b) Gene expression of NDUFS7 measured via qRT-PCR in UQCR11-null lines (OVCAR8, CAOV3, HeyA8) relative to NDUFS7 expression in UQCR11-intact line (SKOV3). Data representative of two independent experiments presented as mean±s.d. (n=5), analyzed using ordinary one-way ANOVA with Dunnett's correction for multiple comparisons. (c) Doseresponse curve for single-agent inhibition in SKOV3 cells by either Complex I inhibitor, rotenone, or MTHFD2 inhibitor. […] Data are representative of two independent experiments and presented as mean±s.e.m (n=3) and analyzed using two-tailed Welch's t-test. […] Viability decrease was measured 72 h after inhibitor treatment relative to vehicle control. […] (n=6) and analyzed using ordinary 2-way ANOVA with Sidak's correction for multiple comparisons. […] (n=4) and analyzed using two-tailed Welch's t-test. […] Viability decrease was measured 72 h after inhibitor treatment relative to vehicle control. […] (n=5) and analyzed using two-tailed Welch's t-test.
# [1] = test system: isogenic SKOV3 cells (shScramble, shUQCR11); experiment: Nucleotide profiling after MTHFD2 inhibitor vs vehicle; type: cell-based
# Text: FIG. 14 Analysis of global metabolomics and nucleotide pathways of ovarian cancer lines with and without UQCR11 deletion. (a) Pathway enrichment analysis using metabolic pathways in the KEGG database comparing UQCR11-intact and -null ovarian cancer lines from the CCLE panel (n=50). Pathway coverage represents fraction of metabolites in the KEGG pathway that have available data. Data analyzed using weighted z-test for pathway analysis built into MetaboAnalyst 5.0. (b) Pathway enrichment analysis on all metabolite concentrations measured in SKOV3 (UQCR11-intact) and OVCAR8, HeyA8 and CAOV3 (UQCR11-null) cells for metabolites involved in nucleotide metabolism. Pathway coverage, that is, percentage of metabolites measured from each pathway are represented by a gradient color-scale. […] Data analyzed using weighted z-test for pathway analysis built into MetaboAnalyst 5.0. […] Data are combined from two independent experiments and analyzed using two-sample t-tests corrected for multiple hypothesis testing, built into MetaboAnalyst 5.0. […] (d) Metabolites involved in pyrimidine synthesis and salvage are measured in SKOV3 (UQCR11-intact) and OVCAR8, HeyA8 and CAOV3 (UQCR11-null) cells and overlaid onto the pyrimidine metabolic pathway map. […] Data are combined from two independent experiments and analyzed using two-sample t-tests corrected for multiple hypothesis testing, built into MetaboAnalyst 5.0 (n=6). […]
smiles,measurement,setting,value
Cc1c(N2CCN(C)[C@@H](C)C2)ccc2c3c(c(=O)oc12)CN(C(=O)c1ccc(NS(C)(=O)=O)c(OC(F)(F)F)c1)CC3 [DS18561882],effect of co-inhibition on viability,SKOV3 cells,synergistic effect
same,differentially abundant metabolites (nucleotides),[1],three out of 49
